Columns and labels:
[1] = Tolerability in mice (maximum tolerated dose, clinical observations); details: C57BL/6J, mouse, in vivo, ip, 100 mg/kg, intraperitoneal, read-out: Dose safely administered intraperitoneally (preliminary maximum tolerated dose studies)
[2] = tested on: Enterococcus faecalis EF1509; assay: Murine peritoneal sepsis model; type: in vivo, C57BL/6J mice; details: 6jc48-1 100 mg/kg, ampicillin 300 mg/kg
Description: Care of the mice met or exceeded the standards set forth by the National Institute of Health Guide for the care and use of laboratory animals and the AVMA panel on Euthanasia. All procedures in this study have been approved by the Institutional Animal Care and Use Committee (IACUC) at the University of Maryland Baltimore School of Medicine (Protocol number 02122005). Adult C57BL/6J mice (~18 grams, 8–10 weeks old) were used for all experiments. Mice were obtained from the Jackson Laboratory (Bar Harbor, Maine, USA) and housed in the IHV SPC animal core facility. Mice were fed standard chow (Harlan Laboratories) and water ad libitum. […] Infected animals (n = 5) were subsequently treated by intraperitoneal injection 30 min post-infection with 100 mg/kg of compound in 300 μL sterile saline solution, 5% Tween 80, 10% DMSO (V/V), ampicillin (300mg/kg), or vehicle (sterile saline solution, 5% Tween 80, 10% DMSO (V/V)) as positive and negative controls, respectively. Animals were closely observed during a period of 24 h and mice that show signs of severe sepsis were humanely euthanized. Mice were anesthetized by intraperitoneal injection of ketamine (80-100mg/kg) and xylazine (10–15 mg/kg). Once sedated, blood was collected by cardiac puncture. Immediately after blood collection the mice were euthanized by cervical dislocation. Spleens were harvested aseptically, weighed and homogenized in 500 μl of sterile saline solution using an IKA T10 basic disperser (IKA, Wilmington NC). Spleen homogenates were serially diluted and plated onto BHI agar plates. Bacterial counts were determined following 24 h incubation at 37°C and expressed as CFU per gram for spleen.
We established a murine model for sepsis to evaluate the efficacy of 6jc48-1 as an antibiotic agent in vivo. […] Based on the data obtained in the pharmacokinetic analysis, mice (n = 5) were inoculated intraperitoneally with E. faecalis EF1509 (~5 x 10^8 CFU/ animal) and treated after 30 min with compound 6jc48-1 (100 mg/kg IP), ampicillin (300 mg/kg IP) or vehicle. Animals were monitored for survival and after 24 h spleen samples were collected and analyzed for the presence of bacteria. Bacterial counts were determined by plating serial dilutions on BHI agar plates and compared to control treatment with ampicillin as measures of efficacy (Fig 5).

P. aeruginosa ATCC 27853 = assay: Antibacterial activity (MIC, broth dilution); type: cell-based; details: CLSI
Protocol: (§1) Determination of the Minimal Inhibitory Concentrations (MIC) by dilution was carried out by broth dilution according to CLSI standards.

E. faecium EF1509 (VRE) = assay: Antibacterial activity (MIC, broth dilution); type: cell-based; details: CLSI, in µg/mL
Protocol: as §1

E. faecium F118 (VRE) = assay: Antibacterial activity (MIC, broth dilution); type: cell-based; details: CLSI, in µg/mL
Protocol: as §1

[3] = Solubility in water (laser nephelometry); type: physicochemical; details: n=3
Protocol: Solubility in water was determined using a NEPHELOstar^plus laser nephelometer (BMG Labtech, Cary, NC) at a wavelength of 635 nm and bottom read optics using a 96-well plate format. A solution of 6jc48-1 was prepared at a concentration of 2.5 mg/ml in DMSO. The DMSO solution (10 μl) was added to wells containing water (290 μl) for a final concentration of 125 μg/ml. The plate was incubated at room temperature for two hours prior to reading in the nephalometer. All samples were run in triplicate. Control samples (DMSO with no analyte) were prepared and run in parallel.

[4] = Plasma protein binding (Transil); type: in vitro ADME; details: human, TRANSIL XL PPB plates (human plasma protein beads)
Protocol: Human plasma protein binding was determined using TRANSIL^XL PPB plates (Sovicell, Leipzig, Germany). The compound 6jc48-1 (15 ul, 32% DMSO stock solution) was added to each well of a column (8 wells total) on a room temperature equilibrated plate. The plate was incubated for twelve minutes on a shaker at 1000 rpm then centrifuged for 10 minutes at 750 × g to sediment the beads from the suspension. Aliquots (100 ul) were transferred from the supernatants to 96-well plate for MS analysis. Plasma protein binding data analysis was completed by using the supplied spreadsheet from the manufacturer (Sovicell, User Guide TRANSIL PPB binding kit V2.01, 2013).

[5] = Cytotoxicity against mammalian cells (MTS assay); type: cell-based; details: human, HeLa cells (ATCC CCL-2.2)
Method in brief: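 HeLa cells exposed 72 h in RPMI1640 to compounds at 64 to 0.125 μg/ml, in triplicate. Viability measured as mitochondrial activity by MTS, and CC50 taken against a standard curve of serially diluted untreated cells.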

CN(C)c1ccc(/C=C/c2cc(-c3ccc(Br)cc3)cc(-c3ccc(Br)cc3)[o+]2)cc1 [6jc48-1]
MTD [1]: ≥ 100 mg/kg | Bacterial counts in spleen ([2]; IP treatment 30 min post-infection, spleen collected after 24 h): significant bacterial clearance | Survival of infected animals ([2]; n = 5, IP treatment 30 min post-infection, length of the experiment (24 h)): Four out of five | Antibacterial activity (MIC) P. aeruginosa ATCC 27853 (P. aeruginosa ATCC 27853): ≥ 64 µg/mL | Antibacterial activity (MIC) E. faecium EF1509 (VRE) (E. faecium EF1509 (VRE)): 2.828 | Antibacterial activity (MIC) E. faecium F118 (VRE) (E. faecium F118 (VRE)): 5.657 | solubility at 2 h [3]: > 50 µg/mL | fraction unbound at 12 min [4]: 0.11 | CC50 at 72 h [5]: > 100 µg/mL
